Measurements published in US11896007B2, “Pest control using natural pest control agent blends” (TYRATECH, INC., priority 2008, dated 2024).

How the values were obtained:
Drosophila TyrR [1] = target: T1, Drosophila TyrR (Drosophila melanogaster, UniProt P22270, C261Y); test: 3H-tyramine saturation binding to membranes of S2 cells expressing TyrR; conditions: 0.1 to 30 nM 3H-tyramine
T1 construct: The open reading frame contained in this PCR product encodes a protein of 601 amino acids; expressed in transfected cells
T1 sequence (P22270 27-601 C261Y): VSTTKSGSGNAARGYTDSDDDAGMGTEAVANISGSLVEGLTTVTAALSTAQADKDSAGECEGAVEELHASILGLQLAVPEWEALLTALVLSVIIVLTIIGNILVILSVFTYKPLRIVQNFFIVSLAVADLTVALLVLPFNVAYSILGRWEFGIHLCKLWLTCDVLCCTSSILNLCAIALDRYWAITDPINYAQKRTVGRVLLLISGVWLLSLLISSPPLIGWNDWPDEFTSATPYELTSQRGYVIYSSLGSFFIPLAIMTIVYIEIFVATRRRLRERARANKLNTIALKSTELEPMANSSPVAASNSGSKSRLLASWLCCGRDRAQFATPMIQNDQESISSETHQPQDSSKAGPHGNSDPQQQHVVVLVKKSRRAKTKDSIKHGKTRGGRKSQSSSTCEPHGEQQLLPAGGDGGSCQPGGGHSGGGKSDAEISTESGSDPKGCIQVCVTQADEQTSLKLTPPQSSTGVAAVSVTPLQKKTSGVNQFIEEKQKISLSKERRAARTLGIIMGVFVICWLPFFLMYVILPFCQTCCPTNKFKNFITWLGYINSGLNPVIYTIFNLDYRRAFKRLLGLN
Method: To first isolate membranes, Dro-TyrR-expressing S2 cells grown in Drosophila media are harvested in the same media by scraping from the dishes and then rinsing dishes with PBS. The cells are centrifuged at 1000 g for 3 min, washed once with PBS and centrifuged again as previously described. The cells are suspended in ice cold hypotonic buffer (10 mM Tris-Cl, pH 7.4), incubated on ice for 10 min, and lysed using a glass Bounce homogenizer and tight glass pestle (Kontes Glass Co., Vineland, N.J.) with 10 strokes. Nuclei are pelleted by centrifugation at 600 g for 5 min. The supernatant is decanted and centrifuged at 30,000 g for 30 min to pellet a crude membrane fraction. The pellet is suspended in binding buffer (50 mM Tris-Cl, 5 mM MgCl2, pH 7.4). Protein concentration is determined by the Bradford Assay (Bio-Rad Laboratories, Hercules, Calif.). Membranes are frozen on dry ice then stored at −75° C. in aliquots.
[…] The binding reaction is incubated at 23° C. in the presence and absence of 10 μM unlabeled tyramine. Reactions are terminated after 60 min by addition of 3 ml ice cold binding buffer and filtered over GF/C filters that have been soaked for 30 min in 0.3% polyethylenimine. Filters are rinsed one additional time with 3 ml binding buffer. […]

[2] = target: T2, Drosophila tyramine receptor (droTyrR) (Drosophila melanogaster, UniProt P22270, C261Y); test: Intracellular calcium ([Ca2+]i) in S2 cells stably transfected with Drosophila tyramine receptor (Fura-2 AM); type: cell-based; conditions: 1 μM; Dro-TyrR-expressing S2 cells; no increase in pAC control cells (FIG. 25)
T2 construct: The open reading frame contained in this PCR product encodes a protein of 601 amino acids; expressed in transfected cells
T2 sequence (P22270 27-601 C261Y): T1 sequence (P22270 27-601 C261Y)
Method: The blend (at a final concentration of 0.5 mg/mL) was tested on a Drosophila Scheider 2 (“S2”) cell line that was stably transfected with a DNA encoding a tyramine receptor that was amplified from a Drosophila melanogaster head cDNA phage library (“droTyrR”). The intracellular calcium levels (“[Ca^2+]i”) in the treated S2 cells were then measured as a function of time. As a comparison, the a solution of carrier (canola oil, final concentration=0.12 mg/mL) and a solution of surfactant (sugar ester OWA-1570) in insect saline were tested separately.
In a separate set of experiments, the blend (at a final concentration of 0.5 mg/mL) was tested on a Drosophila Scheider 2 (“S2”) cell line that was stably transfected with droTyrR DNA, and the intracellular calcium levels (“[Ca^2+]i”) in the treated S2 cells were then measured as a function of time. […]
In yet another separate set of experiments, the blend (at a final concentration of 0.5 mg/mL) was tested on a Drosophila Scheider 2 (“S2”) cell line that was stably transfected with droTyrR DNA, and the intracellular calcium levels (“[Ca^2+]i”) in the treated S2 cells were then measured as a function of time. […]
Increased cytoplasmic concentrations of IP3 induce release of Ca2+ from the endoplasmic reticulum. […] Data are normalized by dividing each value by the background fluorescence at the beginning of the assay before adding the test sample. […]

Drosophila TyrR [3] = target: T1, Drosophila TyrR; test: Competitive tyramine receptor binding assay with 3H-tyramine

NCCc1ccc(O)cc1 [^3H-tyramine]
Kd (Drosophila TyrR [1]; 10 μM unlabeled tyramine for nonspecific binding, read-out: Kd for specific binding): 0.00256 µM | Bmax for specific binding (Drosophila TyrR [1]; membranes of TyrR-expressing S2 cells): 0.679 pmol receptor/mg membrane protein

NCCc1ccc(O)cc1 [Tyramine (TA), Tyramine]
Ca2+-bound Fura-2 AM fluorescence [2]: sharp increase | affinity for TyrR relative to DL-octopamine (Drosophila TyrR [3]; ratio of Ki values): about 22.58 fold

NCC(O)c1ccc(O)cc1 (racemic) [Octopamine (OA), DL-octopamine]
Ki (Drosophila TyrR [3]; competitive binding with 3H-tyramine): 28.7 µM
